Reference: EP0394553A2, “Use of fluorine containing pyridone carboxylic acid derivatives for preparing a medicament for the treatment of HIV infections” (DAIICHI PHARMACEUTICAL CO., LTD., priority 1989, dated 1990)
Where two headings read alike, the source gives them in different places.

Test system: HIV (LAV 1)
Test: microbe, parasite or virus in culture
Conditions: for viability at 1 µg/mL / viability at 2.5 µg/mL / viability at 5 µg/mL / viability at 10 µg/mL: Human immunodeficiency virus 1, CCRF-CEM
How it was run: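 CEM cells were infected with HIV LAV 1 at MOI 0.05 and cultured with test substance at 10, 5, 2.5 or 1 mcg/ml, with medium exchanged periodically up to 30 days. Viable cell count and percentage were measured by trypan blue, and antigen-positive cells by immunofluorescence with anti-HIV antiserum, at 4–30 days. Values are means of two wells.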

[1] = 1 mcg/ml, 4-day addition, after 4 days
[2] = 1 mcg/ml, 4-day addition, after 7 days
[3] = 1 mcg/ml, 4-day addition, after 10 days
[4] = 1 mcg/ml, 4-day addition, after 30 days
[5] = 1 mcg/ml, continuous addition, after 4 days
[6] = 1 mcg/ml, continuous addition, after 7 days
[7] = 1 mcg/ml, continuous addition, after 10 days
[8] = 1 mcg/ml, continuous addition, after 30 days
[9] = 2.5 mcg/ml, 4-day addition, after 4 days
[10] = 2.5 mcg/ml, 4-day addition, after 7 days
[11] = 2.5 mcg/ml, 4-day addition, after 10 days
[12] = 2.5 mcg/ml, 4-day addition, after 20 days
[13] = 2.5 mcg/ml, 4-day addition, after 30 days
[14] = 2.5 mcg/ml, continuous addition, after 4 days
[15] = 2.5 mcg/ml, continuous addition, after 7 days
[16] = 2.5 mcg/ml, continuous addition, after 10 days
[17] = 2.5 mcg/ml, continuous addition, after 20 days
[18] = 2.5 mcg/ml, continuous addition, after 30 days
[19] = 5 mcg/ml, 4-day addition, after 4 days
[20] = 5 mcg/ml, 4-day addition, after 7 days
[21] = 5 mcg/ml, 4-day addition, after 10 days
[22] = 5 mcg/ml, 4-day addition, after 20 days
[23] = 5 mcg/ml, 4-day addition, after 30 days
[24] = 5 mcg/ml, continuous addition, after 4 days
[25] = 5 mcg/ml, continuous addition, after 7 days
[26] = 5 mcg/ml, continuous addition, after 10 days
[27] = 5 mcg/ml, continuous addition, after 20 days
[28] = 5 mcg/ml, continuous addition, after 30 days
[29] = 10 mcg/ml, 4-day addition, after 4 days
[30] = 10 mcg/ml, 4-day addition, after 7 days
[31] = 10 mcg/ml, 4-day addition, after 10 days
[32] = 10 mcg/ml, 4-day addition, after 20 days
[33] = 10 mcg/ml, 4-day addition, after 30 days
[34] = 10 mcg/ml, continuous addition, after 4 days
[35] = 10 mcg/ml, continuous addition, after 7 days
[36] = 10 mcg/ml, continuous addition, after 10 days
[37] = 10 mcg/ml, continuous addition, after 20 days
[38] = 10 mcg/ml, continuous addition, after 30 days

For `C[C@H]1COc2c(N3CCN(C)CC3)c(F)cc3c(=O)c(C(=O)O)cn1c23` [DR-3355, (-)-(S)-9-fluoro-2,3-dihydro-3-methyl-10-(4-methyl-1-piperazinyl)-7-oxo-7H-pyrido[1,2,3-de][1,4]benzoxazine-6-carboxylic acid hemihydrate], the Viable cell count [1] was 220 × 10⁴ cells/ml, the “Viral antigen-positive cell percentage” value [1] was 91% and the Viable cell count [2] was 71 × 10⁴ cells/ml. The “Viral antigen-positive cell percentage” value [2] was 61%, the Viable cell count [3] was 54 × 10⁴ cells/ml and the “Viral antigen-positive cell percentage” value [3] was 56%. The Viable cell count (1 mcg/ml, 4-day addition, after 20 days) was 3 × 10⁴ cells/ml, the Viable cell count [4] was 68 × 10⁴ cells/ml and the “Viral antigen-positive cell percentage” value [4] was 16%. The Viable cell count [5] was 190 × 10⁴ cells/ml, the “Viral antigen-positive cell percentage” value [5] was 88% and the Viable cell count [6] was 65 × 10⁴ cells/ml. For the same compound, the “Viral antigen-positive cell percentage” value [6] was 52%, the Viable cell count [7] was 110 × 10⁴ cells/ml and the “Viral antigen-positive cell percentage” value [7] was 43%. The Viable cell count (1 mcg/ml, continuous addition, after 20 days) was 11 × 10⁴ cells/ml, the Viable cell count [8] was 360 × 10⁴ cells/ml and the “Viral antigen-positive cell percentage” value [8] was 15%. For the same compound, the Viable cell count [9] was 190 × 10⁴ cells/ml, the “Viral antigen-positive cell percentage” value [9] was 88% and the Viable cell count [10] was 76 × 10⁴ cells/ml. For the same compound, the “Viral antigen-positive cell percentage” value [10] was 53%, the Viable cell count [11] was 280 × 10⁴ cells/ml and the “Viral antigen-positive cell percentage” value [11] was 44%. The Viable cell count [12] was 230 × 10⁴ cells/ml, the “Viral antigen-positive cell percentage” value [12] was 30% and the Viable cell count [13] was 130 × 10⁴ cells/ml. For the same compound, the “Viral antigen-positive cell percentage” value [13] was 10%, the Viable cell count [14] was 210 × 10⁴ cells/ml and the “Viral antigen-positive cell percentage” value [14] was 87%. For the same compound, the Viable cell count [15] was 53 × 10⁴ cells/ml, the “Viral antigen-positive cell percentage” value [15] was 51% and the Viable cell count [16] was 290 × 10⁴ cells/ml. The “Viral antigen-positive cell percentage” value [16] was 25%, the Viable cell count [17] was 390 × 10⁴ cells/ml and the “Viral antigen-positive cell percentage” value [17] was 35%. The Viable cell count [18] was 270 × 10⁴ cells/ml, the “Viral antigen-positive cell percentage” value [18] was 11% and the Viable cell count [19] was 190 × 10⁴ cells/ml. The “Viral antigen-positive cell percentage” value [19] was 90%, the Viable cell count [20] was 78 × 10⁴ cells/ml and the “Viral antigen-positive cell percentage” value [20] was 59%. The Viable cell count [21] was 320 × 10⁴ cells/ml, the “Viral antigen-positive cell percentage” value [21] was 33% and the Viable cell count [22] was 190 × 10⁴ cells/ml. For the same compound, the “Viral antigen-positive cell percentage” value [22] was 36%, the Viable cell count [23] was 360 × 10⁴ cells/ml and the “Viral antigen-positive cell percentage” value [23] was 2%. The Viable cell count [24] was 160 × 10⁴ cells/ml, the “Viral antigen-positive cell percentage” value [24] was 87% and the Viable cell count [25] was 51 × 10⁴ cells/ml. For the same compound, the “Viral antigen-positive cell percentage” value [25] was 53%, the Viable cell count [26] was 260 × 10⁴ cells/ml and the “Viral antigen-positive cell percentage” value [26] was 37%. For the same compound, the Viable cell count [27] was 320 × 10⁴ cells/ml, the “Viral antigen-positive cell percentage” value [27] was 29% and the Viable cell count [28] was 210 × 10⁴ cells/ml. The “Viral antigen-positive cell percentage” value [28] was 4%, the Viable cell count [29] was 170 × 10⁴ cells/ml and the “Viral antigen-positive cell percentage” value [29] was 88%. The Viable cell count [30] was 50 × 10⁴ cells/ml, the “Viral antigen-positive cell percentage” value [30] was 57% and the Viable cell count [31] was 280 × 10⁴ cells/ml. For the same compound, the “Viral antigen-positive cell percentage” value [31] was 31%, the Viable cell count [32] was 230 × 10⁴ cells/ml and the “Viral antigen-positive cell percentage” value [32] was 19%. The Viable cell count [33] was 320 × 10⁴ cells/ml, the “Viral antigen-positive cell percentage” value [33] was “≦1%” and the Viable cell count [34] was 160 × 10⁴ cells/ml. For the same compound, the “Viral antigen-positive cell percentage” value [34] was 89%, the Viable cell count [35] was 43 × 10⁴ cells/ml and the “Viral antigen-positive cell percentage” value [35] was 55%. The Viable cell count [36] was 220 × 10⁴ cells/ml, the “Viral antigen-positive cell percentage” value [36] was 31% and the Viable cell count [37] was 260 × 10⁴ cells/ml. For the same compound, the “Viral antigen-positive cell percentage” value [37] was 21%, the Viable cell count [38] was 260 × 10⁴ cells/ml and the “Viral antigen-positive cell percentage” value [38] was 4%. The viability at 1 µg/mL (96 h, read-out: Viable cell percentage, 1 mcg/ml, 4-day addition, after 4 days) was 95%, the viability at 1 µg/mL (96 h, read-out: Viable cell percentage, 1 mcg/ml, continuous addition, after 4 days) was 94% and the viability at 2.5 µg/mL (96 h, read-out: Viable cell percentage, 2.5 mcg/ml, 4-day addition, after 4 days) was 94%. The viability at 2.5 µg/mL (96 h, read-out: Viable cell percentage, 2.5 mcg/ml, continuous addition, after 4 days) was 94%, the viability at 5 µg/mL (96 h, read-out: Viable cell percentage, 5 mcg/ml, 4-day addition, after 4 days) was 91% and the viability at 5 µg/mL (96 h, read-out: Viable cell percentage, 5 mcg/ml, continuous addition, after 4 days) was 89%. The viability at 10 µg/mL (96 h, read-out: Viable cell percentage, 10 mcg/ml, 4-day addition, after 4 days) was 92%, the viability at 10 µg/mL (96 h, read-out: Viable cell percentage, 10 mcg/ml, continuous addition, after 4 days) was 91% and the viability at 1 µg/mL (168 h, read-out: Viable cell percentage, 1 mcg/ml, continuous addition, after 7 days) was 69%. It also gave a viability at 2.5 µg/mL (168 h, read-out: Viable cell percentage, 2.5 mcg/ml, continuous addition, after 7 days) of 68%, a viability at 5 µg/mL (168 h, read-out: Viable cell percentage, 5 mcg/ml, continuous addition, after 7 days) of 66% and a viability at 10 µg/mL (168 h, read-out: Viable cell percentage, 10 mcg/ml, continuous addition, after 7 days) of 75%. The viability at 1 µg/mL (240 h, read-out: Viable cell percentage, 1 mcg/ml, continuous addition, after 10 days) was 61%, the viability at 2.5 µg/mL (240 h, read-out: Viable cell percentage, 2.5 mcg/ml, continuous addition, after 10 days) was 94% and the viability at 5 µg/mL (240 h, read-out: Viable cell percentage, 5 mcg/ml, continuous addition, after 10 days) was 95%. The viability at 10 µg/mL (240 h, read-out: Viable cell percentage, 10 mcg/ml, continuous addition, after 10 days) was 92%, the viability at 1 µg/mL (480 h, read-out: Viable cell percentage, 1 mcg/ml, continuous addition, after 20 days) was 50% and the viability at 2.5 µg/mL (480 h, read-out: Viable cell percentage, 2.5 mcg/ml, continuous addition, after 20 days) was 95%. The viability at 5 µg/mL (480 h, read-out: Viable cell percentage, 5 mcg/ml, continuous addition, after 20 days) was 89%, the viability at 10 µg/mL (480 h, read-out: Viable cell percentage, 10 mcg/ml, continuous addition, after 20 days) was 87% and the viability at 1 µg/mL (read-out: Viable cell percentage, 1 mcg/ml, 4-day addition, after 7 days) was 70%. The viability at 1 µg/mL (read-out: Viable cell percentage, 1 mcg/ml, 4-day addition, after 10 days) was 61%, the viability at 1 µg/mL (read-out: Viable cell percentage, 1 mcg/ml, 4-day addition, after 20 days) was 20% and the viability at 1 µg/mL (read-out: Viable cell percentage, 1 mcg/ml, 4-day addition, after 30 days) was 98%. For the same compound, the viability at 1 µg/mL (read-out: Viable cell percentage, 1 mcg/ml, continuous addition, after 30 days) was 98%, the viability at 2.5 µg/mL (read-out: Viable cell percentage, 2.5 mcg/ml, 4-day addition, after 7 days) was 80% and the viability at 2.5 µg/mL (read-out: Viable cell percentage, 2.5 mcg/ml, 4-day addition, after 10 days) was 92%. It also gave a viability at 2.5 µg/mL (read-out: Viable cell percentage, 2.5 mcg/ml, 4-day addition, after 20 days) of 87%, a viability at 2.5 µg/mL (read-out: Viable cell percentage, 2.5 mcg/ml, 4-day addition, after 30 days) of 83% and a viability at 2.5 µg/mL (read-out: Viable cell percentage, 2.5 mcg/ml, continuous addition, after 30 days) of 88%. It also gave a viability at 5 µg/mL (read-out: Viable cell percentage, 5 mcg/ml, 4-day addition, after 7 days) of 76%, a viability at 5 µg/mL (read-out: Viable cell percentage, 5 mcg/ml, 4-day addition, after 10 days) of 95% and a viability at 5 µg/mL (read-out: Viable cell percentage, 5 mcg/ml, 4-day addition, after 20 days) of 87%. For the same compound, the viability at 5 µg/mL (read-out: Viable cell percentage, 5 mcg/ml, 4-day addition, after 30 days) was 92%, the viability at 5 µg/mL (read-out: Viable cell percentage, 5 mcg/ml, continuous addition, after 30 days) was 75% and the viability at 10 µg/mL (read-out: Viable cell percentage, 10 mcg/ml, 4-day addition, after 7 days) was 68%. For the same compound, the viability at 10 µg/mL (read-out: Viable cell percentage, 10 mcg/ml, 4-day addition, after 10 days) was 94%, the viability at 10 µg/mL (read-out: Viable cell percentage, 10 mcg/ml, 4-day addition, after 20 days) was 85% and the viability at 10 µg/mL (read-out: Viable cell percentage, 10 mcg/ml, 4-day addition, after 30 days) was 92%. The viability at 10 µg/mL (read-out: Viable cell percentage, 10 mcg/ml, continuous addition, after 30 days) was 83%.
